Values quoted from earlier work as cited in patent US20160310552A1, “NORTHERN WHITE KIDNEY BEAN EXTRACT AND CERATONIA SILIQUA EXTRACT IN COMBINATION WITH GREEN TEA EXTRACT IN THE TREATMENT OF EXCESS WEIGHT AND OBESITY” (priority 2015, published 2016).

Assays:
[1] = during a 12 month period
[2] = preliminary data; 10% with placebo

CC(C)CC(N(C)C)C1(c2ccc(Cl)cc2)CCC1 (centres unmarked) [sibutramine]
Weight loss [1]: 5-10%
Subjects who died or had a heart attack, a stroke or cardiac arrest [2]: 11.4%
